Measurements published in patent US6737383B1, “Herbicidal oxadiazolidines” (priority 1999, dated 2004).

Tests used:
[1] = tested on: duck salad; assay: Test B flood test duck salad; format: in vivo, Heteranthera limosa; settings: for Plant response rating, Ducksalad (0 to 10 scale, 0 is no effect, 10 is complete control) / Ducksalad plant response rating (0 to 10 scale, 0 is no effect, 10 is complete control): visual evaluation after twelve to sixteen days; for Ducksalad plant response rating (0 to 10 scale, 0 is no effect, 10 is complete control): under heading Pre-emergence
Procedure, shortened: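 Plants were grown to the 2-leaf stage before treatment with test chemical, then held in a greenhouse for twelve to sixteen days. Injury was visually rated against untreated controls on a 0–10 scale, where 0 is no effect and 10 is complete control.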

[2] = tested on: purple nutsedge; assay: Test B pre/postemergence purple nutsedge; format: in vivo, Cyperus rotundus
Procedure, shortened: (§1)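 Herbicidal effect was estimated by eye on a ten-point control scale after plants spent twelve to sixteen days in a greenhouse following soil or foliar treatment. Foliar sprays targeted plants at one to four leaves; all doses were formulated in a non-phytotoxic solvent with surfactant.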

[3] = tested on: sugar beet; assay: Test B pre/postemergence sugar beet; format: in vivo, Beta vulgaris
Procedure, shortened: as §1

[4] = tested on: rape; assay: Test B pre/postemergence rape; format: in vivo, Brassica napus
Procedure, shortened: as §1

[5] = Rate 62 g/ha, headed Pre-emergence (flood test species), scale 0 to 10 (0 no effect, 10 complete control)
[6] = Rate 125 g/ha, Pre-emergence, flood test species, scale 0 to 10 where 0 is no effect and 10 is complete control
[7] = Rate 250 g/ha, Pre-emergence, flood-test species, scale 0 to 10, 0 is no effect, 10 is complete control
[8] = Preemergence, Rate 250 g/ha, scale 0 to 10, 0 is no effect, 10 is complete control
[9] = Rate 125 g/ha, Postemergence, scale 0 to 10
[10] = Rate 500 g/ha, Postemergence, scale 0 to 10
[11] = Preemergence, Rate 62 g/ha, scale of 0 to 10 where 0 is no effect and 10 is complete control
[12] = Preemergence, Rate 125 g/ha, 0 is no effect, 10 is complete control
[13] = Preemergence, Rate 500 g/ha, scale of 0 to 10 where 0 is no effect and 10 is complete control
[14] = Rate 62 g/ha, Postemergence, scale of 0 to 10 where 0 is no effect and 10 is complete control
[15] = Rate 500 g/ha, Pre-emergence, flood test species, scale 0 to 10 (0 no effect, 10 complete control)
[16] = Preemergence, Rate 250 g/ha, scale of 0 to 10 where 0 is no effect and 10 is complete control
[17] = Rate 62 g/ha, Postemergence, scale 0 to 10 (0 no effect, 10 complete control)
[18] = Rate 125 g/ha, Postemergence, scale of 0 to 10 where 0 is no effect and 10 is complete control
[19] = Rate 250 g/ha, Postemergence, scale of 0 to 10 where 0 is no effect and 10 is complete control
[20] = Postemergence, Rate 62 g/ha, scale 0 to 10, 0 is no effect, 10 is complete control
[21] = Postemergence, Rate 250 g/ha, scale 0 to 10, 0 no effect, 10 complete control
[22] = Preemergence, Rate 62 g/ha, scale 0 to 10 (0 no effect, 10 complete control)
[23] = Preemergence, Rate 125 g/ha, scale 0 to 10 (0 no effect, 10 complete control)
[24] = Preemergence, Rate 500 g/ha, scale 0 (no effect) to 10 (complete control)
[25] = Rate 125 g/ha, Postemergence, scale 0 to 10, 0 no effect, 10 complete control
[26] = Rate 500 g/ha, Postemergence, scale 0 to 10, 0 no effect, 10 complete control
[27] = Rate 125 g/ha, Preemergence, scale of 0 to 10 where 0 is no effect and 10 is complete control
[28] = Rate 62 g/ha, flood test species, Pre-emergence
[29] = Rate 125 g/ha, flood test species
[30] = Postemergence, Rate 125 g/ha, scale 0 to 10, 0 is no effect, 10 is complete control
[31] = Postemergence, Rate 250 g/ha, scale 0 to 10, 0 is no effect, 10 is complete control
[32] = Postemergence, Rate 62 g/ha, scale of 0 to 10, 0 is no effect, 10 is complete control
[33] = Postemergence, Rate 500 g/ha, scale of 0 to 10 where 0 is no effect and 10 is complete control
[34] = Preemergence, Rate 125 g/ha, scale 0 to 10, 0 is no effect, 10 is complete control

CSc1ccc(N(C(=O)n2oc(=O)n(-c3ccccc3C)c2=O)C(C)C)cc1 [Compound 205]
Ducksalad plant response rating [1, 5]: 0
Ducksalad plant response rating [1, 6]: 0
Ducksalad plant response rating [1, 7]: 0
Plant response rating, Ducksalad ([1]; Rate 500 g/ha, headed Pre-emergence (flood test species), scale 0 to 10 (0 no effect, 10 complete control)): 0
Nutsedge plant response rating [2, 8]: 0
Nutsedge plant response rating [2, 9]: 0
Nutsedge plant response rating [2, 10]: 0
Sugarbeets plant response rating [3, 11]: 0
Sugarbeets plant response rating (0 to 10 scale) [3, 12]: 0
Sugarbeets plant response rating [3, 8]: 0
Plant response rating, Sugarbeets [3, 13]: 0
Sugarbeets plant response rating [3, 14]: 0
Sugarbeets plant response rating [3, 9]: 0
Plant response rating (0 to 10; 0 is no effect, 10 is complete control), Sugarbeets ([3]; Rate 250 g/ha, Postemergence): 0
Sugarbeets plant response rating [3, 10]: 0
Rape plant response rating [4, 11]: 0
Rape plant response rating (0 to 10 scale) [4, 12]: 0
Rape plant response rating [4, 8]: 0
Plant response rating, Rape [4, 13]: 0
Rape plant response rating [4, 14]: 0
Rape plant response rating [4, 9]: 0
Plant response rating (0 to 10; 0 is no effect, 10 is complete control), Rape ([4]; Rate 250 g/ha, Postemergence): 0
Rape plant response rating [4, 10]: 0

CCN(C(=O)n1oc(=O)n(C2CCCCC2)c1=O)C1CCCCC1 [Compound 308]
Ducksalad plant response rating ([1]; Pre-emergence, Rate 1000 g/ha, scale 0 to 10 (0 no effect, 10 complete control)): 0
Ducksalad plant response rating [1, 6]: 0
Ducksalad plant response rating [1, 7]: 0
Ducksalad plant response rating [1, 15]: 0
Nutsedge plant response rating [2, 11]: 0
Nutsedge plant response rating (0 to 10 scale) ([2]; Preemergence, Rate 125 g/ha): 0
Nutsedge plant response rating [2, 16]: 0
Nutsedge plant response rating [2, 13]: 0
Nutsedge plant response rating [2, 17]: 0
Nutsedge plant response rating [2, 18]: 0
Plant response rating, Nutsedge [2, 19]: 0
Sugarbeets plant response rating [3, 11]: 0
Sugarbeets plant response rating (0 to 10 scale) ([3]; Preemergence, Rate 125 g/ha): 0
Sugarbeets plant response rating [3, 16]: 0
Sugarbeets plant response rating [3, 13]: 0
Sugarbeets plant response rating [3, 17]: 0
Sugarbeets plant response rating [3, 18]: 0
Plant response rating, Sugarbeets [3, 19]: 0
Rape plant response rating [4, 11]: 0
Rape plant response rating (0 to 10 scale) ([4]; Preemergence, Rate 125 g/ha): 0
Rape plant response rating [4, 16]: 0
Rape plant response rating [4, 13]: 0
Rape plant response rating [4, 17]: 0
Rape plant response rating [4, 18]: 0
Plant response rating, Rape [4, 19]: 0

CCN(CC)C(=O)n1oc(=O)n(Cc2cccs2)c1=O [Compound 77]
Ducksalad plant response rating [1, 20]: 0
Ducksalad plant response rating ([1]; Rate 125 g/ha, Postemergence section (flood test species), scale 0 to 10, 0 no effect, 10 complete control): 0
Ducksalad plant response rating ([1]; Rate 500 g/ha, listed under Postemergence (flood test species), scale 0 to 10, 0 no effect, 10 complete control): 0
Ducksalad plant response rating ([1]; flood test, listed under Postemergence, Rate 250 g/ha, scale 0 to 10, 0 no effect, 10 complete control): 0
Nutsedge plant response rating [2, 20]: 0
Nutsedge plant response rating [2, 21]: 0
Nutsedge plant response rating [2, 22]: 0
Plant response rating, Nutsedge [2, 23]: 2
Plant response rating, Nutsedge [2, 16]: 3
Nutsedge plant response rating [2, 24]: 6
Nutsedge plant response rating [2, 25]: 0
Nutsedge plant response rating [2, 26]: 0
Sugarbeets plant response rating [3, 20]: 0
Sugarbeets plant response rating [3, 21]: 0
Sugarbeets plant response rating [3, 22]: 0
Plant response rating, Sugarbeets [3, 23]: 0
Plant response rating, Sugarbeets [3, 16]: 0
Sugarbeets plant response rating [3, 24]: 0
Sugarbeets plant response rating [3, 25]: 0
Sugarbeets plant response rating [3, 26]: 0
Rape plant response rating [4, 20]: 0
Rape plant response rating [4, 21]: 0
Rape plant response rating [4, 22]: 0
Plant response rating, Rape [4, 23]: 0
Plant response rating, Rape [4, 16]: 0
Rape plant response rating [4, 24]: 0
Rape plant response rating [4, 25]: 0
Rape plant response rating [4, 26]: 3

COc1cc(C)cc(C)c1-n1c(=O)on(C(=O)N(c2ccc(F)cc2F)C(C)C)c1=O [Compound 223]
Ducksalad plant response rating [1, 5]: 0
Ducksalad plant response rating [1, 6]: 0
Ducksalad plant response rating [1, 7]: 0
Ducksalad plant response rating [1, 15]: 0
Nutsedge plant response rating [2, 11]: 0
Nutsedge plant response rating [2, 14]: 0
Nutsedge plant response rating [2, 9]: 0
Nutsedge plant response rating [2, 27]: 0
Plant response rating (0 to 10; 0 is no effect, 10 is complete control), Nutsedge ([2]; Rate 250 g/ha, Postemergence): 0
Nutsedge plant response rating [2, 26]: 0
Sugarbeets plant response rating [3, 11]: 0
Sugarbeets plant response rating [3, 16]: 0
Plant response rating, Sugarbeets [3, 13]: 0
Sugarbeets plant response rating [3, 14]: 0
Sugarbeets plant response rating [3, 9]: 1
Sugarbeets plant response rating [3, 27]: 0
Plant response rating (0 to 10; 0 is no effect, 10 is complete control), Sugarbeets ([3]; Rate 250 g/ha, Postemergence): 2
Sugarbeets plant response rating [3, 26]: 3
Rape plant response rating [4, 11]: 0
Rape plant response rating [4, 16]: 0
Plant response rating, Rape [4, 13]: 0
Rape plant response rating [4, 14]: 0
Rape plant response rating [4, 9]: 0
Rape plant response rating [4, 27]: 0
Plant response rating (0 to 10; 0 is no effect, 10 is complete control), Rape ([4]; Rate 250 g/ha, Postemergence): 0
Rape plant response rating [4, 26]: 0

CC(C)N(C(=O)n1oc(=O)n(CCl)c1=O)c1ccc(F)cc1 [Compound 376]
Plant response rating, Ducksalad (0 to 10 scale, 0 is no effect, 10 is complete control) [1, 28]: 0
Ducksalad plant response rating (0 to 10 scale, 0 is no effect, 10 is complete control) [1, 29]: 0
Ducksalad plant response rating [1, 7]: 0
Ducksalad plant response rating [1, 15]: 0
Plant response rating, Nutsedge [2, 30]: 0
Plant response rating, Nutsedge [2, 31]: 0
Plant response rating, Nutsedge [2, 22]: 0
Nutsedge plant response rating (0 to 10 scale) ([2]; Preemergence, Rate 125 g/ha): 0
Nutsedge plant response rating [2, 16]: 0
Nutsedge plant response rating [2, 13]: 0
Nutsedge plant response rating [2, 14]: 0
Plant response rating, Nutsedge [2, 26]: 0
Plant response rating, Sugarbeets [3, 30]: 0
Plant response rating, Sugarbeets [3, 31]: 0
Plant response rating, Sugarbeets [3, 22]: 0
Sugarbeets plant response rating (0 to 10 scale) ([3]; Preemergence, Rate 125 g/ha): 0
Sugarbeets plant response rating [3, 16]: 0
Sugarbeets plant response rating [3, 13]: 0
Sugarbeets plant response rating [3, 14]: 0
Plant response rating, Sugarbeets [3, 26]: 0
Plant response rating, Rape [4, 30]: 0
Plant response rating, Rape [4, 31]: 0
Plant response rating, Rape [4, 22]: 0
Rape plant response rating (0 to 10 scale) ([4]; Preemergence, Rate 125 g/ha): 0
Rape plant response rating [4, 16]: 0
Rape plant response rating [4, 13]: 0
Rape plant response rating [4, 14]: 0
Plant response rating, Rape [4, 26]: 0

CC(C)N(C(=O)n1oc(=O)n(CCC2OCCCO2)c1=O)c1ccccc1 [Compound 561]
Plant response rating, Ducksalad (0 to 10 scale, 0 is no effect, 10 is complete control) [1, 28]: 0
Ducksalad plant response rating (0 to 10 scale, 0 is no effect, 10 is complete control) [1, 29]: 0
Ducksalad plant response rating ([1]; Rate 250 g/ha, Pre-emergence (flood test species), scale 0 to 10, 0 is no effect, 10 is complete control): 0
Ducksalad plant response rating ([1]; Rate 500 g/ha, Pre-emergence section of Table B, 0 to 10 scale (0 no effect, 10 complete control)): 0
Nutsedge plant response rating [2, 32]: 0
Nutsedge plant response rating [2, 30]: 2
Plant response rating, Nutsedge [2, 33]: 4
Sugarbeets plant response rating [3, 32]: 0
Plant response rating, Sugarbeets [3, 33]: 4
Sugarbeets plant response rating [3, 22]: 0
Sugarbeets plant response rating [3, 34]: 0
Sugarbeets plant response rating (0 to 10 scale) ([3]; Preemergence, Rate 250 g/ha): 2
Sugarbeets plant response rating [3, 13]: 8
Rape plant response rating [4, 32]: 4
Rape plant response rating [4, 30]: 4
Plant response rating, Rape [4, 33]: 4
Rape plant response rating [4, 22]: 2
Rape plant response rating [4, 34]: 2
Rape plant response rating (0 to 10 scale) ([4]; Preemergence, Rate 250 g/ha): 5
Rape plant response rating [4, 13]: 9
Plant response rating, Rape [4, 19]: 4
